In patent EP4592276A1, “NOVEL ACY[…] OF PSILOCIN AND RELATED 4-HYDROXYT[…] BY AN EFFICIENT […] APPROACH” (Universität Heidelberg, priority 2024, dated 2025):
“And” between values parts separate entries of the source, which are not always exact repeats. Equal values may be shown once. Where a name gives a salt, the structure may show the parent alone.

Tested on: not listed separately
Experiment: Drug release kinetics (prodrug cleavage) in human blood plasma
Format: in vitro ADME
Conditions: 10 % human plasma in PBS, 37 °C, 50 µM
Description: Pooled human blood plasma (Biowest, France) and sterile Dulbecco's phosphate buffered saline (PBS) pH 7.3 (Sigma-Aldrich, Germany) were used for all experiments. The blood plasma was aliquoted upon receipt and stored at -20 °C. 10 % solutions were prepared by thawing a plasma aliquot at 2-8 °C, distributing it into plastic vials and diluting with the appropriate volume of sterile PBS. The 10 % and 100 % plasma aliquots were stored at -20 °C and thawed at 2-8 °C directly before the assay was performed. In a thermoblock, a plasma aliquot and 10 µl of a 5 mM prodrug solution in DMSO were prewarmed to 37 °C for 10 min in separate plastic vials. Then, 1000 µl of the prewarmed plasma sample was added to the prodrug solution, and 9×100 µl samples were withdrawn at appropriate time intervals. The enzymatic reaction was quenched by immediate mixing of the samples (100 µl) with acetonitrile (200 µl). Blank samples were prepared by mixing 10 % or 100 % plasma (100 µl) with acetonitrile (200 µl), respectively. Samples of the initial reaction mixture were prepared by adding the 5 mM prodrug solution (1 µl) to a blank sample.
Centrifugation (13,000 rpm, 3 min) of the quenched samples afforded clear supernatants which were transferred to 96 well U-bottom polypropylene plates (Greiner Bio-One, Germany). Analyte quantifications were performed on a Jasco HPLC system equipped with a UV detector and an RP-18 column (Chromolith® Performance RP-18e, 100x4.6 mm) using one of the gradients listed in Table 3. Prodrug degradation was monitored using undiluted supernatant and a 10 min chromatographic method. […] For all samples, the injection volume was 40 µL and the flow was set to 1.0 mL/min. […] Table 3: HPLC settings for quantitative analysis of plasma samples.

SMILES | half-life [min]
CCN(C)CCc1c[nH]c2cccc(OC(=O)C(C)C)c12 [Compound 8d, 4-iso-Butyryloxy-N-ethyl-N-methyltryptammonium fumarate] | 0.44 ± 0.03
CCN(C)CCc1c[nH]c2cccc(OC(C)=O)c12 [Compound 8a, 4-Acetoxy-N-ethyl-N-methyltryptammonium fumarate, reference compound] | 0.69 ± 0.14
CCCC(=O)Oc1cccc2[nH]cc(CCN(C)CC)c12 [Compound 8b, 4-Butyryloxy-N-ethyl-N-methyltryptammonium fumarate] | 0.64 ± 0.04

Same assay, conditions: 100 % human plasma, 37 °C

SMILES | half-life at 50 µM [min]
CCN(C)CCc1c[nH]c2cccc(OCOC(=O)C(C)(C)C)c12 [Compound 15c, 4-Pivaloyloxymethyloxy-N-ethyl-N-methyltryptammonium fumarate] | > 300
CN(C)CCc1c[nH]c2cccc(OCOC(=O)C(C)(C)C)c12 [Compound 15a, 4-Pivaloyloxymethyloxy-N,N-dimethyltryptammonium fumarate] | > 300

Tested on: not listed separately
Experiment: Equilibrium solubility (shake-flask)
Conditions: 35.5 °C, pH 6.8, aqueous buffer, thermodynamic from solid
Description: For each reported solubility result, one shake-flask experiment was carried out unless otherwise stated. Measurements at pH 2.0 were performed in 0.01 M HCl. Measurements at pH 6.8 were performed in a KH2PO4/K2HPO4 buffer with an ionic strength of 70 mM. For each experiment, the solid, HPLC-purified sample (1.7 - 25 mg) was suspended in 250 - 500 µL of the aqueous buffer in a glass vial. The solution containing solid excess of the sample was then capped and shaken at 220 rpm in an Infors HT Minitron incubator at a defined temperature for 6 hours. Three aliquots (3 × 70 µL) were removed with a fine pipette from each shake-flask experiment, and the saturated solution in these aliquots was separated from precipitate by centrifugation (10000 rpm, 5 min) at the assay temperature. […] The reported values are the mean of three measured concentrations. The error was estimated based on the standard deviation of the three measurements and the uncertainty of the calibration curve. Table 8: Equilibrium solubility of selected prodrugs along with references.

SMILES | solubility thermodynamic at 6 h
CN(C)CCc1c[nH]c2cccc(OC(=O)C3CC3)c12 [Compound 19c, 4-(cyclopropanecarbonyloxy)-N,N-dimethyltryptamine] | 32600 µM and 8900 µg/mL

Tested on: not listed separately
Experiment: Passive membrane permeation assay (PAMPA)
Format: in vitro ADME
Conditions: pre-coated PAMPA plate, PBS pH 7.4, 200 µM, 25 °C, 5 h
Description: The passive membrane permeability was evaluated with a pre-coated PAMPA plate system (BD Gentest, BD Bioscience, Germany) following the guidelines of the manufacturer and a previous literature report (cf. Kühl et al. Eur. J. Med. Chem. 2022, 240, 114585). Phosphate-buffered saline (PBS) pH 7.4 (Sigma-Aldrich, Germany) was used for all experiments. Analyte concentrations were determined on a Jasco HPLC system equipped with a UV detector and an RP-18 column (Chromolith® Performance RP-18e, 100x4.6 mm) using one of the gradients listed in Table 2. For all samples, the injection volume was 40 µl. Table 2: HPLC settings for the analysis of PAMPA samples.
Prior to performing the assay, the PAMPA plate was warmed to room temperature for 0.5 h. In the donor plate, 300 µL of the 200 µM compound solutions in PBS (4 % dimethyl sulfoxide (DMSO)) were dispensed in triplicate, and in the acceptor plate, 200 µL of PBS buffer were added to all wells. The plates were combined, and the system was incubated at 25 °C for 5 h. Upon completion of the incubation, donor and acceptor plate were separated. The wells were homogeneously mixed with a pipette, and a 100 µl sample of each donor and acceptor well was transferred to 96 well U-bottom polypropylene plates (Greiner Bio-One, Germany) for quantitative HPLC analysis.

SMILES | R (mass retention) [%]
CCN(C)CCc1c[nH]c2cccc(OC(=O)C(C)C)c12 [Compound 8d, 4-iso-Butyryloxy-N-ethyl-N-methyltryptammonium fumarate] | 4
CCN(C)CCc1c[nH]c2cccc(OC(C)=O)c12 [Compound 8a, 4-Acetoxy-N-ethyl-N-methyltryptammonium fumarate, reference compound] | 4
CCN(C)CCc1c[nH]c2cccc(OCOC(=O)C(C)(C)C)c12 [Compound 15c, 4-Pivaloyloxymethyloxy-N-ethyl-N-methyltryptammonium fumarate] | 2
CN(C)CCc1c[nH]c2cccc(OCOC(=O)C(C)(C)C)c12 [Compound 15a, 4-Pivaloyloxymethyloxy-N,N-dimethyltryptammonium fumarate] | 4
CCCC(=O)Oc1cccc2[nH]cc(CCN(C)CC)c12 [Compound 8b, 4-Butyryloxy-N-ethyl-N-methyltryptammonium fumarate] | 4

Same assay, conditions: pre-coated PAMPA plate, PBS pH 7.4, 200 µM, 25 °C, 5 h; mean ± standard deviation

SMILES | Pe
CCN(C)CCc1c[nH]c2cccc(OC(=O)C(C)C)c12 [Compound 8d, 4-iso-Butyryloxy-N-ethyl-N-methyltryptammonium fumarate] | at least 8 10^-6 cm/s
CCN(C)CCc1c[nH]c2cccc(OCOC(=O)C(C)(C)C)c12 [Compound 15c, 4-Pivaloyloxymethyloxy-N-ethyl-N-methyltryptammonium fumarate] | 9.7 ± 0.6 10^-6 cm/s
CN(C)CCc1c[nH]c2cccc(OCOC(=O)C(C)(C)C)c12 [Compound 15a, 4-Pivaloyloxymethyloxy-N,N-dimethyltryptammonium fumarate] | 9.1 ± 0.5 10^-6 cm/s
CCCC(=O)Oc1cccc2[nH]cc(CCN(C)CC)c12 [Compound 8b, 4-Butyryloxy-N-ethyl-N-methyltryptammonium fumarate] | at least 8 10^-6 cm/s

Same assay, conditions: pre-coated PAMPA plate, PBS pH 7.4, 200 µM, 25 °C, mean ± standard deviation, read-out: Pe

SMILES | Papp at 5 h, 200 µM [×10⁻⁶ cm/s]
CCN(C)CCc1c[nH]c2cccc(OC(=O)C(C)C)c12 [Compound 8d, 4-iso-Butyryloxy-N-ethyl-N-methyltryptammonium fumarate] | 9.5 ± 0.7
CCN(C)CCc1c[nH]c2cccc(OC(C)=O)c12 [Compound 8a, 4-Acetoxy-N-ethyl-N-methyltryptammonium fumarate, reference compound] | 5.6 ± 0.8
CCCC(=O)Oc1cccc2[nH]cc(CCN(C)CC)c12 [Compound 8b, 4-Butyryloxy-N-ethyl-N-methyltryptammonium fumarate] | 9.2 ± 0.8

Tested on: not listed separately
Experiment: Prodrug stability in human whole saliva
Format: in vitro ADME
Conditions: 37 °C, mean of fresh samples of three individuals, classified into three groups
Description: Freshly collected saliva and 5 mM stock solutions of the analytes in DMSO were prewarmed to 37 °C for 10 min. Then, 700 µl prewarmed saliva was added to 7 µl of the prodrug stock, and the mixture was incubated at 37 °C. Samples (100 µL) were taken at selected time points (0, 10, 20, 40, 60 min; 2 h or 24 h) and immediately quenched with acetonitrile (200 µl). Blank samples were prepared by mixing saliva (100 µl) with acetonitrile (200 µl). Centrifugation (3,000 rpm, 5 min) of the quenched samples afforded clear supernatants which were transferred to 96 well U-bottom polypropylene plates (Greiner Bio-One, Germany). Analyte quantifications were performed on a Jasco HPLC system equipped with a UV detector and an RP-18 column (Chromolith® Performance RP-18e, 100x4.6 mm) using the gradients listed in Table 4. Samples that gave rise to asymmetric peaks inadequate for quantification were diluted (1:1) with H2O (+0.1 % TFA). The injection volume was 40 µl and the flow was set to 1.0 mL/min. UV detection was performed at 286 nm. […] Table 4: HPLC settings for quantitative analysis of saliva samples.

SMILES | half-life at 50 µM [min]
CCN(C)CCc1c[nH]c2cccc(OC(=O)C(C)C)c12 [Compound 8d, 4-iso-Butyryloxy-N-ethyl-N-methyltryptammonium fumarate] | 15 to 60
CCN(C)CCc1c[nH]c2cccc(OC(C)=O)c12 [Compound 8a, 4-Acetoxy-N-ethyl-N-methyltryptammonium fumarate, reference compound] | 15 to 60
CCN(C)CCc1c[nH]c2cccc(OCOC(=O)C(C)(C)C)c12 [Compound 15c, 4-Pivaloyloxymethyloxy-N-ethyl-N-methyltryptammonium fumarate] | < 15
CN(C)CCc1c[nH]c2cccc(OCOC(=O)C(C)(C)C)c12 [Compound 15a, 4-Pivaloyloxymethyloxy-N,N-dimethyltryptammonium fumarate] | 15 to 60
CCCC(=O)Oc1cccc2[nH]cc(CCN(C)CC)c12 [Compound 8b, 4-Butyryloxy-N-ethyl-N-methyltryptammonium fumarate] | 15 to 60

Tested on: HuH-7 cells
Experiment: Cell viability in HuH-7 cells (CellTiter-Blue)
Format: cell-based, human
Conditions: 50 µM, 2 h incubation; mean of triplicates ± standard deviation
Description: In order to assess cytotoxic effects of compounds in cell culture, HuH-7 cells were incubated in presence of these compounds in a 96-well plate for 2 h or 24 h. In order to generate a calibration curve for cell viability, a serial dilution (1:2 dilution series) of cells was seeded into control wells. Measurement of cell viability is based on the assay development using CellTiter-Blue reagent (Resazurin, blue color), which is reduced to resofurin (pink color) by viable cells.
Prior to performing the assay, a 96-well assay plate (F-bottom, transparent, Greiner) containing HuH-7 cells (20,000 cells per well) in culture medium was prepared. […] CellTiter-Blue reagent (1-2 mL) was diluted with cell culture medium (10 mL) in a Falcon tube and prewarmed to 37 °C. The 96-well plate was removed from the incubator, the medium aspirated using a vacuum pump and 100 µL of diluted CellTiter-Blue reagent was added to each well.

SMILES | Cell Viability in HuH7 at 50 µM, 2 h Incubation [%]
CCN(C)CCc1c[nH]c2cccc(OC(=O)C(C)C)c12 [Compound 8d, 4-iso-Butyryloxy-N-ethyl-N-methyltryptammonium fumarate] | 91.4 ± 3.7
CCN(C)CCc1c[nH]c2cccc(OC(C)=O)c12 [Compound 8a, 4-Acetoxy-N-ethyl-N-methyltryptammonium fumarate, reference compound] | 88.7 ± 3.0
CCN(C)CCc1c[nH]c2cccc(OCOC(=O)C(C)(C)C)c12 [Compound 15c, 4-Pivaloyloxymethyloxy-N-ethyl-N-methyltryptammonium fumarate] | 48.3 ± 16.1
CN(C)CCc1c[nH]c2cccc(OCOC(=O)C(C)(C)C)c12 [Compound 15a, 4-Pivaloyloxymethyloxy-N,N-dimethyltryptammonium fumarate] | 61.6 ± 6.0
CCCC(=O)Oc1cccc2[nH]cc(CCN(C)CC)c12 [Compound 8b, 4-Butyryloxy-N-ethyl-N-methyltryptammonium fumarate] | 88.1 ± 6.0

Same assay, conditions: 50 µM, 24 h incubation; mean of triplicates ± standard deviation

SMILES | Cell Viability in HuH7 at 50 µM, 24 h Incubation [%]
CCN(C)CCc1c[nH]c2cccc(OC(=O)C(C)C)c12 [Compound 8d, 4-iso-Butyryloxy-N-ethyl-N-methyltryptammonium fumarate] | 82.1 ± 2.3
CCN(C)CCc1c[nH]c2cccc(OC(C)=O)c12 [Compound 8a, 4-Acetoxy-N-ethyl-N-methyltryptammonium fumarate, reference compound] | 85.4 ± 3.6
CCN(C)CCc1c[nH]c2cccc(OCOC(=O)C(C)(C)C)c12 [Compound 15c, 4-Pivaloyloxymethyloxy-N-ethyl-N-methyltryptammonium fumarate] | 47.1 ± 10.4
CN(C)CCc1c[nH]c2cccc(OCOC(=O)C(C)(C)C)c12 [Compound 15a, 4-Pivaloyloxymethyloxy-N,N-dimethyltryptammonium fumarate] | 61.6 ±18.4
CCCC(=O)Oc1cccc2[nH]cc(CCN(C)CC)c12 [Compound 8b, 4-Butyryloxy-N-ethyl-N-methyltryptammonium fumarate] | 83.7 ± 1.0

Tested on: not listed separately
Experiment: Stability of prodrugs in methanol (1H NMR)
Format: physicochemical
Conditions: CD3OD, ambient temperature, within 18 days
From the text: The stability of the exemplary carboxylic ester 8b in methanol was studied by dissolving a few milligrams of the fumarate ester in CD3OD at ambient temperature and measuring ^1H NMR spectra in appropriate time intervals.

SMILES | initial amount of ester degraded
CCCC(=O)Oc1cccc2[nH]cc(CCN(C)CC)c12 [Compound 8b, 4-Butyryloxy-N-ethyl-N-methyltryptammonium fumarate] | approximately 50%
